In patent publication US20100278733A1, “COMPOSITION FOR DIAGNOSIS OF AMYLOID-RELATED DISEASE” (priority 2007, published 2010):
One block for each compound: values may come before it.

Columns and labels:
Aβ(1-42) aggregate = biological target: T1, Aβ(1-42) aggregate (Homo sapiens, UniProt P05067); test: Binding inhibition experiment using Aβ(1-42) aggregate, Ki values (Example 2); details: radioactive ligand [^125I]CL-NMe2; mean ± standard error of 3 experiments (compound 4: 6 experiments); compound numbers of Example 2; read-out: Ki values calculated by inhibition experiment
T1 construct: Amyloid β protein (Human, 1-42) [TFA form] was purchased from Peptide Institute, Inc; purchased Peptide Institute, Inc
T1 sequence (P05067 672-713 limits assumed): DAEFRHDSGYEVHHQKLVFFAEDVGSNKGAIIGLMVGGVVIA
Procedure: As a radioactive iodine-125 (^125I), Iodine-125 (3.7 GBq/mL) manufactured by MP Biomedicals, Inc. was used. Reverse phase HPLC was performed at a flow rate of 1.0 mL/min using a Cosmosil 5C18-AR-II column (4.6×150 mm) manufactured by Nacalai Tesque Inc. and ultrapure water:acetonitrile=3:7 as an elution solvent. ^1HNMR was measured using Varian Gemini 300 and tetramethylsilane as an internal standard substance. Mass spectrometry was performed using JEOL IMS-DX300. Preparative TLC was performed using 12 PLC plates 20×20-cm-Silica gel 60 F254, 2 mm manufactured by MERCK. Amyloid β protein (Human, 1-42) was purchased from Peptide Institute, Inc., and special grade reagents were used as other reagents.
Aβ(1-42) was dissolved in 10 mM phosphate buffer containing 1 mM EDTA (pH 7.4) at a concentration of 0.25 mg/mL, and the mixture was incubated at 37° C. for 42 h to prepare an Aβ(1-42) aggregate.
[…] of 10% EtOH solution, […] of a solution of [^125I]4-diethylamino-4′-iodochalcone ([^125I]CL-NMe2) in 10% ethanol, and […] of a sample solution at various concentrations (0 to 20 mM) were mixed, […] of an Aβ(1-42) aggregate solution was finally added, and the mixture was allowed to stand at room temperature for 3 h. Aβ(1-42) aggregate-bound compounds and nonbound compounds were separated with a Brandel M-24R cell harvester using a Whatman GF/B filter. Radioactivities remaining on the filter after filtration were measured with a γ-counter, and inhibition curves were created using Graph Pad Prism 4.0 to calculate inhibition constants (Ki values).

[1] = In-vivo radioactivity distribution experiment using normal mice (Example 2); details: normal mice, intravenous, Example 2 numbering
Procedure: Radioactive iodine labeling compounds were diluted with physiological saline containing 10% EtOH. To each of four or five 5-week-old male ddY mice (20 to 25 g) per group, […] of a labeled compound, [^125I]Compound 7, 10, 13, or 14 (0.2 to 0.4 mCi), was administered from the caudal vein. Animals were decapitated at 2, 10, 30, or 60 min, blood was collected, the major organs were isolated, and then weights and radioactivities thereof were measured.

[2] = In-vivo radioactivity distribution experiment in mice (Reference Example 1); details: intravenous, mean (standard deviation), Reference Example 1 numbering
Procedure: A radioactive iodine-labeled compound (Compound 7) was diluted with physiological saline containing 5 to 10% ethanol. Three to five 5-week-old male ddY mice (25 to 30 g) per group were decapitated at 2, 10, 30, or 60 min after intravenous administration of […] (0.5 to 1 μCi) of the labeled compound, blood was collected, organs were removed, and weights and radioactivities thereof were measured.

Compound: Nc1ccc(C=CC(=O)c2ccc(I)cc2)cc1 [CL-NH2, reference compound]
Ki (Aβ(1-42) aggregate): 105 ± 12 nM

Compound: CNc1ccc(C=CC(=O)c2ccc(I)cc2)cc1 [CL-NHMe, reference compound]
Ki (Aβ(1-42) aggregate): 6.3 ± 1.6 nM

Compound: CNc1ccc(C(=O)/C=C/c2ccc(I)cc2)cc1 [Compound 7 in Example 2, 4-iodo-4′-methylaminochalcone]
In-vivo radioactivity distribution: blood ([1]; 2 min): 1.76 (0.27) percent of the dose/g | In-vivo radioactivity distribution: brain ([1]; 2 min): 3.07 (0.57) percent of the dose/g | In-vivo radioactivity distribution: heart ([1]; 2 min): 5.00 (0.79) percent of the dose/g | In-vivo radioactivity distribution: intestine ([1]; 2 min): 2.52 (0.81) percent of the dose/g | In-vivo radioactivity distribution: kidney ([1]; 2 min): 6.20 (0.93) percent of the dose/g | In-vivo radioactivity distribution: liver ([1]; 2 min): 10.82 (2.61) percent of the dose/g | In-vivo radioactivity distribution: lung ([1]; 2 min): 11.10 (3.36) percent of the dose/g | In-vivo radioactivity distribution: pancreas ([1]; 2 min): 4.93 (1.01) percent of the dose/g | In-vivo radioactivity distribution: spleen ([1]; 2 min): 2.27 (0.48) percent of the dose/g | In-vivo radioactivity distribution: stomach ([1]; 2 min): 1.06 (0.67) percent of the dose | In-vivo radioactivity distribution: blood ([1]; 10 min): 1.43 (0.30) percent of the dose/g | In-vivo radioactivity distribution: brain ([1]; 10 min): 2.03 (0.41) percent of the dose/g | In-vivo radioactivity distribution: heart ([1]; 10 min): 1.98 (0.24) percent of the dose/g | In-vivo radioactivity distribution: intestine ([1]; 10 min): 7.78 (1.31) percent of the dose/g | In-vivo radioactivity distribution: kidney ([1]; 10 min): 4.56 (0.67) percent of the dose/g | In-vivo radioactivity distribution: liver ([1]; 10 min): 9.42 (1.92) percent of the dose/g | In-vivo radioactivity distribution: lung ([1]; 10 min): 4.94 (1.73) percent of the dose/g | In-vivo radioactivity distribution: pancreas ([1]; 10 min): 2.99 (1.70) percent of the dose/g | In-vivo radioactivity distribution: spleen ([1]; 10 min): 1.47 (0.27) percent of the dose/g | In-vivo radioactivity distribution: stomach ([1]; 10 min): 0.87 (0.38) percent of the dose | In-vivo radioactivity distribution: blood ([1]; 30 min): 1.15 (0.57) percent of the dose/g | In-vivo radioactivity distribution: brain ([1]; 30 min): 0.69 (0.09) percent of the dose/g | In-vivo radioactivity distribution: heart ([1]; 30 min): 0.98 (0.20) percent of the dose/g | In-vivo radioactivity distribution: intestine ([1]; 30 min): 17.52 (1.74) percent of the dose/g | In-vivo radioactivity distribution: kidney ([1]; 30 min): 3.92 (1.05) percent of the dose/g | In-vivo radioactivity distribution: liver ([1]; 30 min): 6.77 (1.21) percent of the dose/g | In-vivo radioactivity distribution: lung ([1]; 30 min): 2.22 (0.58) percent of the dose/g | In-vivo radioactivity distribution: pancreas ([1]; 30 min): 1.04 (0.35) percent of the dose/g | In-vivo radioactivity distribution: spleen ([1]; 30 min): 0.94 (0.48) percent of the dose/g | In-vivo radioactivity distribution: stomach ([1]; 30 min): 0.70(0.11) percent of the dose | In-vivo radioactivity distribution: blood ([1]; 60 min): 1.51 (0.26) percent of the dose/g | In-vivo radioactivity distribution: brain ([1]; 60 min): 0.40 (0.08) percent of the dose/g | In-vivo radioactivity distribution: heart ([1]; 60 min): 0.82 (0.14) percent of the dose/g | In-vivo radioactivity distribution: intestine ([1]; 60 min): 18.47 (2.31) percent of the dose/g | In-vivo radioactivity distribution: kidney ([1]; 60 min): 4.04 (1.10) percent of the dose/g | In-vivo radioactivity distribution: liver ([1]; 60 min): 6.01 (1.81) percent of the dose/g | In-vivo radioactivity distribution: lung ([1]; 60 min): 1.57 (0.23) percent of the dose/g | In-vivo radioactivity distribution: pancreas ([1]; 60 min): 0.78 (0.16) percent of the dose/g | In-vivo radioactivity distribution: spleen ([1]; 60 min): 0.71 (0.19) percent of the dose/g | In-vivo radioactivity distribution: stomach ([1]; 60 min): 1.14 (0.48) percent of the dose

Compound: COc1cc(/C=C/C(=O)c2cccc(I)c2)ccc1O [Compound 7 in Reference Example 1, (E)-3-(4-hydroxy-3-methoxyphenyl)-1-(3-iodophenyl)prop-2-en-1-one]
In-vivo distribution of radioactivity: Blood ([2]; 2 min): 4.90 (0.52) percents of the dose/g | In-vivo distribution of radioactivity: Brain ([2]; 2 min): 2.52 (0.20) percents of the dose/g | In-vivo distribution of radioactivity: Heart ([2]; 2 min): 5.58 (0.99) percents of the dose/g | In-vivo distribution of radioactivity: Intestines ([2]; 2 min): 2.50 (0.31) percents of the dose/g | In-vivo distribution of radioactivity: Kidneys ([2]; 2 min): 11.99 (3.60) percents of the dose/g | In-vivo distribution of radioactivity: Liver ([2]; 2 min): 15.71 (1.27) percents of the dose/g | In-vivo distribution of radioactivity: Spleen ([2]; 2 min): 2.57 (0.42) percents of the dose/g | In-vivo distribution of radioactivity: Blood ([2]; 10 min): 3.80 (0.91) percents of the dose/g | In-vivo distribution of radioactivity: Brain ([2]; 10 min): 1.28 (0.17) percents of the dose/g | In-vivo distribution of radioactivity: Heart ([2]; 10 min): 2.88 (1.02) percents of the dose/g | In-vivo distribution of radioactivity: Intestines ([2]; 10 min): 10.52 (1.82) percents of the dose/g | In-vivo distribution of radioactivity: Kidneys ([2]; 10 min): 9.16 (2.76) percents of the dose/g | In-vivo distribution of radioactivity: Liver ([2]; 10 min): 18.55 (2.68) percents of the dose/g | In-vivo distribution of radioactivity: Spleen ([2]; 10 min): 1.80 (0.30) percents of the dose/g | In-vivo distribution of radioactivity: Blood ([2]; 30 min): 1.84 (0.31) percents of the dose/g | In-vivo distribution of radioactivity: Brain ([2]; 30 min): 0.40 (0.11) percents of the dose/g | In-vivo distribution of radioactivity: Heart ([2]; 30 min): 1.44 (0.34) percents of the dose/g | In-vivo distribution of radioactivity: Intestines ([2]; 30 min): 20.60 (6.13) percents of the dose/g | In-vivo distribution of radioactivity: Kidneys ([2]; 30 min): 5.00 (2.27) percents of the dose/g | In-vivo distribution of radioactivity: Liver ([2]; 30 min): 7.67 (1.68) percents of the dose/g | In-vivo distribution of radioactivity: Spleen ([2]; 30 min): 1.03 (0.04) percents of the dose/g | In-vivo distribution of radioactivity: Blood ([2]; 60 min): 1.15 (0.44) percents of the dose/g | In-vivo distribution of radioactivity: Brain ([2]; 60 min): 0.35 (0.05) percents of the dose/g | In-vivo distribution of radioactivity: Heart ([2]; 60 min): 1.38 (0.34) percents of the dose/g | In-vivo distribution of radioactivity: Intestines ([2]; 60 min): 29.31 (3.26) percents of the dose/g | In-vivo distribution of radioactivity: Kidneys ([2]; 60 min): 4.31 (0.81) percents of the dose/g | In-vivo distribution of radioactivity: Liver ([2]; 60 min): 4.05 (0.61) percents of the dose/g | In-vivo distribution of radioactivity: Spleen ([2]; 60 min): 0.88 (0.15) percents of the dose/g

Compound: O=C(C=Cc1cccs1)c1ccc(I)cc1 [Compound 24 in Example 2, 1-(4-iodophenyl)-3-(2-thienyl)-prop-2-en-1-one]
Ki (Aβ(1-42) aggregate): 102 ± 15.9 nM

Compound: O=C(C=Cc1nccs1)c1ccc(I)cc1 [Compound 27 in Example 2, 1-(4-iodophenyl)-3-(thiazol-2-yl)-prop-2-en-1-one]
Ki (Aβ(1-42) aggregate): > 10000 nM

Compound: CN(C)c1ccc(C=CC(=O)c2ccc(I)cc2)o1 [Compound 31 in Example 2, 1-(4-iodophenyl)-3-(5-dimethylamino-2-furanyl)-prop-2-en-1-one]
Ki (Aβ(1-42) aggregate): 1130 ± 344 nM

The next lines start with the values.

Ki (Aβ(1-42) aggregate): 126 ± 12.5 nM
Compound: CN(C)c1ccc(C=CC(=O)c2ccc(Br)o2)cc1 [Compound 32 in Example 2, 1-(5-bromo-2-furanyl)-3-(4-dimethylaminophenyl)-prop-2-en-1-one]

Ki (Aβ(1-42) aggregate): 113 ± 10.1 nM
Compound: CN(C)c1ccc(C=CC(=O)c2ccc(I)cc2)s1 [Compound 33 in Example 2, 3-(5-dimethylamino-2-thienyl)-1-(4-iodophenyl)-prop-2-en-1-one]

Ki (Aβ(1-42) aggregate): > 10000 nM
Compound: CN(C)c1ccc(C=CC(=O)c2ccc(Br)o2)o1 [Compound 34 in Example 2, 1-(5-bromo-2-furyl)-3-(5-dimethylamino-2-furyl)-prop-2-en-1-one]

Ki (Aβ(1-42) aggregate): 2650 ± 221 nM
Compound: CN(C)c1ccc(C=CC(=O)c2ccc(Br)o2)s1 [Compound 35 in Example 2, 1-(5-bromo-2-furyl)-3-(5-dimethylamino-2-thienyl)-prop-2-en-1-one]

Ki (Aβ(1-42) aggregate): 1610 ± 84.5 nM
Compound: CN(C)c1ccc(C=CC(=O)c2ccc(I)s2)o1 [Compound 36 in Example 2, 3-(5-dimethylamino-2-furyl)-1-(5-iodo-2-thienyl)-prop-2-en-1-one]
